In US8680272B2, “3-arylethynyl substituted quinazolinone compounds” (Council of Scientific & Industrial Research, priority 2011, dated 2014):

Columns and labels:
SF-539 = assay: Anticancer activity, SRB assay, CNS cell line SF-539; format: cell-based, human; details: CNS SF-539, 48 h continuous drug exposure, —^b means GI50 values not attained at the concentrations used
Experimental: (§1) Some of biological activity studies were carried out at the National Cancer Institute (NCI), Maryland, USA.
(§2) The compounds were evaluated for anticancer activity against sixty human cancer cells derived from nine cancer types (leukemia cell line, non-small-cell lung cell line, colon cell line, CNS cell line, melanoma cell line, ovarian cell line, prostate cell line, renal cell line and breast cancer cell line) as shown in Table 1. For each compound, dose response curves for each cell line were measured at a minimum of five concentrations at 10 fold dilutions. A protocol of 48 h continuous drug exposure was used and a sulforhodamine B (SRB) protein assay was used to estimate cell viability or growth.

U251 = assay: Anticancer activity, SRB assay, CNS cell line U251; format: cell-based; details: Homo sapiens, U-251, 48 h continuous drug exposure, read-out: Growth Inhibition GI50
Experimental: as §1, §2

OVCAR-3 = assay: Anticancer activity, SRB assay, ovarian cell line OVCAR-3; format: cell-based; details: Homo sapiens; Ovarian OVCAR-3; 48 h continuous drug exposure; read-out: Growth Inhibition GI50
Experimental: as §1, §2

UACC-62 = assay: Anticancer activity, SRB assay, melanoma cell line UACC-62; format: cell-based; details: Homo sapiens; Melanoma UACC-62; 48 h continuous drug exposure; read-out: Growth Inhibition GI50
Experimental: as §1, §2

M14 = assay: Anticancer activity, SRB assay, melanoma cell line M14; format: cell-based; details: Homo sapiens, 48 h continuous drug exposure, read-out: Growth Inhibition GI50
Experimental: as §1, §2

RPMI-8226 = assay: Anticancer activity, SRB assay, leukemia cell line RPMI-8226; format: cell-based; details: Homo sapiens; Leukemia RPMI-8226; 48 h continuous drug exposure; read-out: Growth Inhibition GI50
Experimental: as §1, §2

IGROV1 = assay: Anticancer activity, SRB assay, ovarian cell line IGROV1; format: cell-based, human; details: —^b means GI50 values not attained at the concentrations used
Experimental: as §1, §2

SK-MEL-28 = assay: Anticancer activity, SRB assay, melanoma cell line SK-MEL-28; format: cell-based, human; details: Melanoma SK-MEL-28, 48 h continuous drug exposure, —^b means GI50 values not attained at the concentrations used
Experimental: as §1, §2

HL-60(TB) = assay: Anticancer activity, SRB assay, leukemia cell line HL-60(TB); format: cell-based; details: Homo sapiens; Leukemia HL-60(TB); 48 h continuous drug exposure; read-out: Growth Inhibition GI50
Experimental: as §1, §2

SK-MEL-2 = assay: Anticancer activity, SRB assay, melanoma cell line SK-MEL-2; format: cell-based, human; details: Melanoma SK-MEL-2, 48 h continuous drug exposure, —^b means GI50 values not attained at the concentrations used
Experimental: as §1, §2

OVCAR-8 = assay: Anticancer activity, SRB assay, ovarian cell line OVCAR-8; format: cell-based, human; details: Ovarian OVCAR-8, 48 h continuous drug exposure, —^b means GI50 values not attained at the concentrations used
Experimental: as §1, §2

HS 578T = assay: Anticancer activity, SRB assay, breast cell line HS 578T; format: cell-based, human; details: Breast HS 578T, 48 h continuous drug exposure, —^b means GI50 values not attained at the concentrations used
Experimental: as §1, §2

MDA-MB-435 = assay: Anticancer activity, SRB assay, melanoma cell line MDA-MB-435; format: cell-based, human; details: Melanoma MDA-MB-435, 48 h continuous drug exposure, —^b means GI50 values not attained at the concentrations used
Experimental: as §1, §2

HCT-116 = assay: Anticancer activity, SRB assay, colon cell line HCT-116; format: cell-based; details: Homo sapiens; Colon HCT-116; 48 h continuous drug exposure; read-out: Growth Inhibition GI50
Experimental: as §1, §2

NCI-H460 = assay: Anticancer activity, SRB assay, non-small lung cell line NCI-H460; format: cell-based; details: Homo sapiens, Non-small lung NCl-H460, 48 h continuous drug exposure, read-out: Growth Inhibition GI50
Experimental: as §1, §2

MDA-MB-231/ATCC = assay: Anticancer activity, SRB assay, breast cell line MDA-MB-231/ATCC; format: cell-based; details: Homo sapiens; Breast MDA-MB-231/ATCC; 48 h continuous drug exposure; read-out: Growth Inhibition GI50
Experimental: as §1, §2

UACC-257 = assay: Anticancer activity, SRB assay, melanoma cell line UACC-257; format: cell-based; details: Homo sapiens; Melanoma UACC-257; 48 h continuous drug exposure; read-out: Growth Inhibition GI50
Experimental: as §1, §2

KM12 = assay: Anticancer activity, SRB assay, colon cell line KM12; format: cell-based; details: Homo sapiens, 48 h continuous drug exposure, read-out: Growth Inhibition GI50
Experimental: as §1, §2

[1] = tested on: six leukemia cancer cell lines (CCRF-CEM, HL-60, K-562, MOLT-4, SR and RPMI-8226); assay: Anticancer activity, SRB assay, leukemia panel; format: cell-based, human; details: for GI50: Homo sapiens, six leukemia cancer cell lines, exposure period of at least 48 h, read-out: GI50 (range over the panel); for mean graph midpoint values (MG_MID) of log10 TGI (Log10TGI50) / mean graph midpoint values (MG_MID) of Log10LC50 / mean graph midpoint values (MG_MID) of Log10GI50: Leukemia; for mean graph midpoint values (MG_MID) of log10 TGI (Log10TGI50): log value of concentration of the compound resulting in total inhibition of net cell growth; for mean graph midpoint values (MG_MID) of Log10LC50: log value of the concentration of compounds leading to 50% net cell death; for mean graph midpoint values (MG_MID) of Log10GI50: log values of concentration in mol/L causing 50% inhibition of net cell growth
Experimental: as §1, §2

SW-620 = assay: Anticancer activity, SRB assay, colon cell line SW-620; format: cell-based; details: Homo sapiens; Colon SW-620; 48 h continuous drug exposure; read-out: Growth Inhibition GI50
Experimental: as §1, §2

K-562 = assay: Anticancer activity, SRB assay, leukemia cell line K-562; format: cell-based; details: Homo sapiens, K562; Leukemia K-562; 48 h continuous drug exposure; read-out: Growth Inhibition GI50
Experimental: as §1, §2

T-47D = assay: Anticancer activity, SRB assay, breast cell line T-47D; format: cell-based, human; details: Breast T-47D, 48 h continuous drug exposure, —^b means GI50 values not attained at the concentrations used
Experimental: as §1, §2

SK-MEL-5 = assay: Anticancer activity, SRB assay, melanoma cell line SK-MEL-5; format: cell-based; details: Homo sapiens; Melanoma SK-MEL-5; 48 h continuous drug exposure; read-out: Growth Inhibition GI50
Experimental: as §1, §2

[2] = tested on: six breast cancer cell line (MCF-7, MDA-MB-231/ATCC, HS 578T, TD-47D, MDA-MB-468 and BT-549); assay: Anticancer activity, SRB assay, breast panel; format: cell-based, human; details: for mean graph midpoint values (MG_MID) of log10 TGI (Log10TGI50) / mean graph midpoint values (MG_MID) of Log10LC50 / mean graph midpoint values (MG_MID) of Log10GI50: Breast; for mean graph midpoint values (MG_MID) of log10 TGI (Log10TGI50): log value of concentration of the compound resulting in total inhibition of net cell growth; for mean graph midpoint values (MG_MID) of Log10LC50: log value of the concentration of compounds leading to 50% net cell death; for mean graph midpoint values (MG_MID) of Log10GI50: log values of concentration in mol/L causing 50% inhibition of net cell growth; for GI50: Homo sapiens, six breast cancer cell line, exposure period of at least 48 h, read-out: GI50 (range over the panel)
Experimental: as §1, §2

NCI/ADR-RES = assay: Anticancer activity, SRB assay, ovarian cell line NCI/ADR-RES; format: cell-based, human; details: Ovarian NCl/ADR-RES, 48 h continuous drug exposure, —^b means GI50 values not attained at the concentrations used
Experimental: as §1, §2

[3] = tested on: six CNS cancer cell line (SF-268, SF-295, SF-539, SNB-19, SNB-75 and U251); assay: Anticancer activity, SRB assay, CNS panel; format: cell-based, human; details: for mean graph midpoint values (MG_MID) of log10 TGI (Log10TGI50) / mean graph midpoint values (MG_MID) of Log10LC50 / mean graph midpoint values (MG_MID) of Log10GI50: CNS; for mean graph midpoint values (MG_MID) of log10 TGI (Log10TGI50): log value of concentration of the compound resulting in total inhibition of net cell growth; for mean graph midpoint values (MG_MID) of Log10LC50: log value of the concentration of compounds leading to 50% net cell death; for mean graph midpoint values (MG_MID) of Log10GI50: log values of concentration in mol/L causing 50% inhibition of net cell growth; for GI50: Homo sapiens, six CNS cancer cell line, exposure period of at least 48 h, read-out: GI50 (range over the panel)
Experimental: as §1, §2

[4] = Homo sapiens, read-out: Growth Inhibition GI50

| SMILES | GI50 (U251) | GI50 (OVCAR-3) | GI50 (UACC-62) | GI50 (M14) | GI50 (RPMI-8226) | GI50 (HL-60(TB)) | GI50 (HCT-116) | GI50 (NCI-H460) | GI50 (MDA-MB-231/ATCC) | GI50 (UACC-257) | GI50 (KM12) | GI50 [1] | mean graph midpoint values (MG_MID) of log10 TGI (Log10TGI50) [1] | mean graph midpoint values (MG_MID) of Log10LC50 [1] | mean graph midpoint values (MG_MID) of Log10GI50 [1] | GI50 (SW-620) | GI50 (K-562) | GI50 (SK-MEL-5) | mean graph midpoint values (MG_MID) of log10 TGI (Log10TGI50) [2] | mean graph midpoint values (MG_MID) of Log10LC50 [2] | further results |
| --- | --- | --- | --- | --- | --- | --- | --- | --- | --- | --- | --- | --- | --- | --- | --- | --- | --- | --- | --- | --- | --- |
| Cc1cc(C#Cc2ccccc2)ccc1-n1c(/C=C/c2cc(O)ccc2O)nc2ccccc2c1=O [Compound 4c, (E)-2-(2,5-Dihydroxystyryl)-3-(2-methyl-4-(phenylethynyl)phenyl)quinazolin-4(3H)-one] | 1450 nM | 1490 nM | 1520 nM | 1540 nM | 1260 nM | 634 nM | 1460 nM | 1570 nM | 1560 nM | 1560 nM | 1650 nM | 634 to 1540 nM | −5.38 | −4.40 | −5.94 mol/L | 1710 nM | 1420 nM | 1350 nM | −5.39 | −4.66 | GI50 (SF-539; [4]): 1600 nM; GI50 (IGROV1; Homo sapiens, IGROV-1, 48 h continuous drug exposure, read-out: Growth Inhibition GI50): 2450 nM; GI50 (SK-MEL-28; [4]): 1530 nM; GI50 (SK-MEL-2; [4]): 1400 nM; GI50 (OVCAR-8; [4]): 1940 nM; GI50 (HS 578T; [4]): 1540 nM; GI50 (MDA-MB-435; [4]): 1670 nM; GI50 (T-47D; Homo sapiens, T47D, read-out: Growth Inhibition GI50): 1140 nM; mean graph midpoint values (MG_MID) of Log10GI50 [2]: −5.84 mol/L; GI50 [2]: 1140 to 1610 nM; GI50 (NCI/ADR-RES; Homo sapiens, NCI/ADR-RES, read-out: Growth Inhibition GI50): 2060 nM; mean graph midpoint values (MG_MID) of log10 TGI (Log10TGI50) [3]: −5.50; mean graph midpoint values (MG_MID) of Log10LC50 [3]: −5.15; mean graph midpoint values (MG_MID) of Log10GI50 [3]: −5.85 mol/L; GI50 [3]: 1300 to 1620 nM |
| COc1ccc2cc(C#Cc3ccc(-n4c(/C=C/c5cc(OC)c(OC)c(OC)c5)nc5ccccc5c4=O)c(C)c3)ccc2c1 [Compound 6l, (E)-3-(4-((6-Methoxynaphthalen-2-yl)ethynyl)-2-methylphenyl)-2-(3,4,5-trimethoxystyryl)quinazolin-4(3H)-one] | 7400 nM | 19300 nM | 2190 nM | 12700 nM | 821 nM | 686 nM | 3530 nM | 2480 nM | 37000 nM | 6240 nM | 4300 nM | 395 to 4660 nM | >−4.00 | >−4.00 | −5.67 mol/L | 17200 nM | 882 nM | 1850 nM | >−4.00 | >−4.00 | Growth Inhibition GI50 (SF-539): —^b; Growth Inhibition GI50 (IGROV1; 48 h continuous drug exposure): —^b; Growth Inhibition GI50 (SK-MEL-28): —^b; Growth Inhibition GI50 (SK-MEL-2): —^b; Growth Inhibition GI50 (OVCAR-8): —^b; Growth Inhibition GI50 (HS 578T): —^b; Growth Inhibition GI50 (MDA-MB-435): —^b; Growth Inhibition GI50 (T-47D): —^b; mean graph midpoint values (MG_MID) of Log10GI50 [2]: −4.51 mol/L; GI50 [2]: 3800 to 63800 nM; Growth Inhibition GI50 (NCI/ADR-RES): —^b; mean graph midpoint values (MG_MID) of log10 TGI (Log10TGI50) [3]: >−4.00; mean graph midpoint values (MG_MID) of Log10LC50 [3]: >−4.00; mean graph midpoint values (MG_MID) of Log10GI50 [3]: −4.18 mol/L; GI50 [3]: 7400 nM |
